These are literature values, as cited in patent EP1232240B1, “DETERGENT COMPOSITIONS” (UNILEVER N.V., priority 1999, dated 2001).

SMILES strings stand for the structures. A value given as a limit tells only on which side of the number the result lay.

The conditions of the data set: grams of solid to form a saturated solution in 100 grams of water at 20°C.

On to `NC(N)=O` [Urea], for which the “Water Solubility (g/100g)” value is listed as greater than 100 g/100g.
